Laboratory results: US6924295B2, “Tetrahydroquinoline derivative compound and drug containing the compound as active ingredient” (Ono Pharmaceutical Co., Ltd., priority 2001, dated 2005)

Tests used:
human PPAR γ = target: T1, human PPAR γ (Homo sapiens, UniProt P37231); test: Luciferase assay using human PPAR γ (PPAR γ agonistic activity); format: cell-based; details: compound 10 μM; luciferase activity of troglitazone (10 μM) defined as 1.0; CV-1 cells with Gal4-human PPAR γ ligand binding domain chimera, 42 hours
T1 construct: expressed in transfected cells; host or cells: CV-1 cells
T1 sequence (P37231 204-505): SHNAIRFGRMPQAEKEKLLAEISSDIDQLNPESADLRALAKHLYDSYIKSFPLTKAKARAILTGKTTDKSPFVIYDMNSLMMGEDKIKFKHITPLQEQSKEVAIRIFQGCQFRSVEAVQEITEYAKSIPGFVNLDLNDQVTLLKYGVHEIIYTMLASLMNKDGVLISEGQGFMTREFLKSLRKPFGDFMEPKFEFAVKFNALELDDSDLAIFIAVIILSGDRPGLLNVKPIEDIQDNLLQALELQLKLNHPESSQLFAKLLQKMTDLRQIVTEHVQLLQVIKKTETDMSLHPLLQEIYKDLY

human PPAR α = target: T2, human PPAR α (Homo sapiens, UniProt Q07869); test: Luciferase assay using human PPAR α (PPAR α agonistic activity); format: cell-based; details: compound 10 μM; luciferase activity of carbacyclin (10 μM) defined as 1.0; CV-1 cells with Gal4-human PPAR α ligand binding domain chimera, 42 hours
T2 construct: expressed in transfected cells; host or cells: CV-1 cells
T2 sequence (Q07869 167-468): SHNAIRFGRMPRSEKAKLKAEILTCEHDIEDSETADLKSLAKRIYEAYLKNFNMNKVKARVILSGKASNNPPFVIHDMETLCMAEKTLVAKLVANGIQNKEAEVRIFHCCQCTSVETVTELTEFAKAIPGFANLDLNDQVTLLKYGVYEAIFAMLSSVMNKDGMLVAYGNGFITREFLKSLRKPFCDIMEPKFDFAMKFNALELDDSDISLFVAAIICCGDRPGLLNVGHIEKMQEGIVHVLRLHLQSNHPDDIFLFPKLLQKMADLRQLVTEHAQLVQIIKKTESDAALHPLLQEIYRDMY

Cc1ccc(-c2nc(CCOc3cccc4c3CCCN4CCC(=O)O)c(C)o2)cc1 [Example 2]
Relative Activity to a positive control compound (troglitazone = 1) (human PPAR γ): 6.7 | Relative Activity to a positive control compound (carbacyclin = 1) (human PPAR α): 0.5
